Where two headings read alike, the source gives them in different places.
Legend:
[1] = system: OPM-2 human multiple myeloma cell line; assay: Cell Viability Assay (OPM-2 10 FBS); type: cell-based; settings: OPM-2 cells, CellTiter-Glo, read-out: OPM-2 10% FBS IC50 IP
Description: Cell Viability Assay (OPM-2 10 FBS)
The human multiple myeloma cell line, OPM-2, was cultured in complete growth medium containing RPMI 1640 and 10% fetal bovine serum (FBS). Cells were seeded into 384-well plates at 3000 cells/well density in complete growth medium containing 10% FBS, and incubated for 16 h with serially diluted test compounds in a 37° C. incubator with 5% CO2. Cell viability was tested using CellTiter-Glo® assay (Promega, Madison, Wis.) according to the manufacturer recommendations. Luminescence was determined using an EnVision® Multilabel plate reader 25 min after the addition of detection reagent. IC50 values were then calculated with Xlfit using a logistical 4-parameter fit model in GraphPad Prism (GraphPad Software, San Diego, Calif.) or in Genedata Screener® (Genedata, Basel, Switzerland).

[2] = molecular target: Mcl-1/Bim interaction (recombinant human Mcl-1 residues 171-327) (Homo sapiens (Human), UniProt Q07820); assay: Cell Free Mcl-1:Bim Affinity Assay (Mcl-1 HTRF); type: binding; settings: TR-FRET, 0.1 nM Mcl-1(171-327), 0.05 nM biotin-Bim(51-76)
Description: Cell Free Mcl-1:Bim Affinity Assay (Mcl-1 HTRF)
The inhibition of the Mcl-1/Bim interaction was measured using a time-resolved fluorescence resonance energy transfer (TR-FRET) assay. The recombinant human Mcl-1 (C-terminally 6×His tagged Mcl-1 containing residues 171-327) was generated at Amgen Inc (Thousand Oaks, Calif.). A biotinylated peptide derived from human Bim (residues 51-76) was purchased from CPC Scientific (San Jose, Calif.). The TR-FRET assay was conducted in a 384-well white OptiPlate™ (PerkinElmer, Waltham, Mass.) in a total volume of 40 μL. The reaction mixture contained 0.1 nM Mcl-1(171-327), 0.05 nM biotin-Bim(51-76), 0.05 nM LANCES Eu-W1024 Anti-6×His (PerkinElmer), 0.072 nM Streptavidin-Xlent (Cisbio, Bedford, Mass.), and serially diluted test compounds in the binding buffer of 20 mM Hepes, pH 7.5, 150 mM NaCl, 0.016 mM Brij®35, and 1 mM dithiothreitol. Test compounds were pre-incubated with Mcl-1(171-327) and biotin-Bim (51-76) for 60 min before addition of the detection mixture (LANCE® Eu-W1024 Anti-6×His and Streptavidin-Xlent). The reaction plates were further incubated overnight and then were read on an Envision® multimode reader (PerkinElmer). Fluorescence signals were measured at 620 nm (40-nm bandwidth) and 665 nm (7.5-nm bandwidth) with a 60 μs delay after excitation at 320 nm (75-nm bandwidth). The signal ratio at 665/620 nm corresponded to the Mcl-1/Bim interaction and was used in all data analyses. The IC50 values of test compounds were determined from duplicate data by analyzing competition curves using a four-parameter sigmoidal model in GraphPad Prism (GraphPad Software, San Diego, Calif.) or in Genedata Screener® (Genedata, Basel, Switzerland).

Chain of Mcl-1/Bim interaction (recombinant human Mcl-1 residues 171-327) (Q07820 171-327): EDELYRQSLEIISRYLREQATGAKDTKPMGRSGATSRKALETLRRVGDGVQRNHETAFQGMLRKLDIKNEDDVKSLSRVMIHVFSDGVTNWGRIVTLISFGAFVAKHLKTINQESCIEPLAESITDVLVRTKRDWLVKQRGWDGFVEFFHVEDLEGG

SMILES | IC50 ([1]; 16 h) [nM] | IC50 [2] [nM] | IC50 ([1]; Homo sapiens, OPM-2, 16 h) [nM]
C[C@@H]1[C@@H](C)CCC[C@H](CN2CCN3CCN(C)C[C@@H]3C2)[C@@H]2CC[C@H]2CN2C[C@@]3(CCCc4cc(Cl)ccc43)COc3ccc(cc32)C(=O)NS1(=O)=O (single isomer, unassigned) [Example 1] | 117 | 0.225 | –
CC(=O)N1CCN2CCN(C[C@H]3CCC[C@H](C)[C@@H](C)S(=O)(=O)NC(=O)c4ccc5c(c4)N(C[C@@H]4CC[C@@H]34)C[C@@]3(CCCc4cc(Cl)ccc43)CO5)C[C@H]2C1 (single isomer, unassigned) [Example 4] | 172 | 0.212 | –
C[C@@H]1[C@@H](C)CCC[C@H](CN2CCN(C)CC2)[C@@H]2CC[C@H]2CN2C[C@@]3(CCCc4cc(Cl)ccc43)COc3ccc(cc32)C(=O)NS1(=O)=O (single isomer, unassigned) [Example 5] | 173 | 0.622 | –
C[C@@H]1[C@@H](C)CCC[C@H](CN2CCN3CCN(C)C[C@@H]3C2)[C@@H]2CC[C@H]2CN2C[C@@]3(CCCc4cc(Cl)ccc43)COc3ccc(cc32)C(=O)NS1(=O)=O (single isomer, unassigned) [Example 6] | 177 | 0.353 | –
COCCN1CCN(C[C@H]2CCC[C@H](C)[C@@H](C)S(=O)(=O)NC(=O)c3ccc4c(c3)N(C[C@@H]3CC[C@@H]23)C[C@@]2(CCCc3cc(Cl)ccc32)CO4)CC1=O (single isomer, unassigned) [Example 7] | 180 | 0.181 | –
C[C@@H]1[C@@H](C)CCC[C@@H](C(=O)N2CCOCC2)[C@@H]2CC[C@H]2CN2C[C@@]3(CCCc4cc(Cl)ccc43)COc3ccc(cc32)C(=O)NS1(=O)=O (single isomer, unassigned) [Example 8] | 221 | 0.126 | –
C[C@@H]1[C@@H](C)CCC[C@H](C(=O)N2CCC2)[C@@H]2CC[C@H]2CN2C[C@@]3(CCCc4cc(Cl)ccc43)COc3ccc(cc32)C(=O)NS1(=O)=O (single isomer, unassigned) [Example 9] | – | 0.246 | 223
C[C@@H]1[C@@H](C)CCC[C@H](CN2CCN3CCOC[C@@H]3C2)[C@@H]2CC[C@H]2CN2C[C@@]3(CCCc4cc(Cl)ccc43)COc3ccc(cc32)C(=O)NS1(=O)=O (single isomer, unassigned) [Example 10] | – | 0.291 | 227
COCCNC(=O)[C@H]1CCC[C@H](C)[C@@H](C)S(=O)(=O)NC(=O)c2ccc3c(c2)N(C[C@@H]2CC[C@H]21)C[C@@]1(CCCc2cc(Cl)ccc21)CO3 (single isomer, unassigned) [Example 11] | – | 0.237 | 242
COCCN1CCN(C[C@H]2CCC[C@H](C)[C@@H](C)S(=O)(=O)NC(=O)c3ccc4c(c3)N(C[C@@H]3CC[C@@H]23)C[C@@]2(CCCc3cc(Cl)ccc32)CO4)CC1 (single isomer, unassigned) [Example 12] | 254 | 0.542 | –
C[C@@H]1[C@@H](C)CCC[C@H](CN2CC(N(C)C)C2)[C@@H]2CC[C@H]2CN2C[C@@]3(CCCc4cc(Cl)ccc43)COc3ccc(cc32)C(=O)NS1(=O)=O (single isomer, unassigned) [Example 13] | – | 0.77 | 258
CC(=O)N1CCN2CCN(C[C@H]3CCC[C@H](C)[C@@H](C)S(=O)(=O)NC(=O)c4ccc5c(c4)N(C[C@@H]4CC[C@@H]34)C[C@@]3(CCCc4cc(Cl)ccc43)CO5)C[C@H]2C1 (single isomer, unassigned) [Example 15] | 277 | 0.185 | –
C[C@@H]1[C@@H](C)CCC[C@H](CN2CC3(CCCN3C)C2)[C@@H]2CC[C@H]2CN2C[C@@]3(CCCc4cc(Cl)ccc43)COc3ccc(cc32)C(=O)NS1(=O)=O (single isomer, unassigned) [Example 16] | 283 | 0.317 | –
C[C@@H]1[C@@H](C)CCC[C@H](CN2CC(C)(N(C)C)C2)[C@@H]2CC[C@H]2CN2C[C@@]3(CCCc4cc(Cl)ccc43)COc3ccc(cc32)C(=O)NS1(=O)=O (single isomer, unassigned) [Example 17] | – | 0.881 | 284
C[C@@H]1[C@@H](C)CCC[C@H](CN2CCN3CCN(C)C[C@@H]3C2)[C@@H]2CC[C@H]2CN2C[C@@]3(CCCc4cc(Cl)ccc43)COc3ccc(cc32)C(=O)NS1(=O)=O (single isomer, unassigned) [Example 19] | 303 | 0.532 | –
CC(=O)N1CCN(C[C@H]2CCC[C@H](C)[C@@H](C)S(=O)(=O)NC(=O)c3ccc4c(c3)N(C[C@@H]3CC[C@@H]23)C[C@@]2(CCCc3cc(Cl)ccc32)CO4)CC1 (single isomer, unassigned) [Example 22] | – | 0.375 | 305
C[C@@H]1[C@@H](C)CCC[C@H](CO)[C@@H]2CC[C@H]2CN2C[C@@]3(CCCc4cc(Cl)ccc43)COc3ccc(cc32)C(=O)NS1(=O)=O (single isomer, unassigned) [Example 23] | 305 | 0.182 | –
C[C@@H]1[C@@H](C)C/C=C/[C@H](CO)[C@@H]2CC[C@H]2CN2C[C@@]3(CCCc4cc(Cl)ccc43)COc3ccc(cc32)C(=O)NS1(=O)=O (single isomer, unassigned) [Example 24] | 322 | 0.224 | –
C[C@@H]1[C@@H](C)C/C=C/[C@H](CO)[C@@H]2CC[C@H]2CN2C[C@@]3(CCCc4cc(Cl)ccc43)COc3ccc(cc32)C(=O)NS1(=O)=O (single isomer, unassigned) [Example 26] | 342 | 0.336 | –
COCC[C@@H]1[C@@H](C)CCC[C@H](CO)[C@@H]2CC[C@H]2CN2C[C@@]3(CCCc4cc(Cl)ccc43)COc3ccc(cc32)C(=O)NS1(=O)=O (single isomer, unassigned) [Example 29] | 366 | 0.226 | –
C[C@@H]1[C@@H](C)CCC[C@H](CN2CCN3CCOC[C@H]3C2)[C@@H]2CC[C@H]2CN2C[C@@]3(CCCc4cc(Cl)ccc43)COc3ccc(cc32)C(=O)NS1(=O)=O (single isomer, unassigned) [Example 31] | 376 | 0.261 | –
C[C@@H]1[C@@H](C)CCC[C@H](CN2CCN(C)CC2)[C@@H]2CC[C@H]2CN2C[C@@]3(CCCc4cc(Cl)ccc43)COc3ccc(cc32)C(=O)NS1(=O)=O (single isomer, unassigned) [Example 34] | 417 | 0.602 | –
CC(=O)N1CCN2CCN(C[C@H]3CCC[C@H](C)[C@@H](C)S(=O)(=O)NC(=O)c4ccc5c(c4)N(C[C@@H]4CC[C@@H]34)C[C@@]3(CCCc4cc(Cl)ccc43)CO5)C[C@H]2C1 (single isomer, unassigned) [Example 35] | 421 | 0.05 | –
C[C@@H]1[C@@H](C)C/C=C/[C@H](CN2CCN3CCOC[C@@H]3C2)[C@@H]2CC[C@H]2CN2C[C@@]3(CCCc4cc(Cl)ccc43)COc3ccc(cc32)C(=O)NS1(=O)=O (single isomer, unassigned) [Example 37] | – | 0.288 | 451
C[C@@H]1[C@@H](C)CCC[C@H](C(=O)N2CC(F)(F)C2)[C@@H]2CC[C@H]2CN2C[C@@]3(CCCc4cc(Cl)ccc43)COc3ccc(cc32)C(=O)NS1(=O)=O (single isomer, unassigned) [Example 38] | – | 0.517 | 525
C[C@@H]1[C@@H](C)CCC[C@H](CN2CCN3CCN(C(=O)OC(C)(C)C)C[C@@H]3C2)[C@@H]2CC[C@H]2CN2C[C@@]3(CCCc4cc(Cl)ccc43)COc3ccc(cc32)C(=O)NS1(=O)=O (stereo in doubt) [Example 64] | – | – | 1500
C[C@@H]1[C@@H](C)CCC[C@@H](CC(=O)N2CCN3CCOC[C@H]3C2)[C@@H]2CC[C@H]2CN2C[C@@]3(CCCc4cc(Cl)ccc43)COc3ccc(cc32)C(=O)NS1(=O)=O [Example 2, (1s,3′r,6′s,7′s,11′s,12′r)-6-chloro-7′-(2-((9ar)-hexahydropyrazino[2,1-c][1,4]oxazin-8(1h)-yl)-2-oxoethyl)-11′,12′-dimethyl-3,4-dihydro-2h,15′h-spiro[naphthalene-1,22′-[20]oxa[13]thia[1,14]diazatetracyclo[14.7.2.0˜3,6˜0.0˜19,24˜]pentacosa[16,18,24]trien]-15′-one 13′,13′-dioxide trifluoroacetic acid] | – | – | 134

From US11279712B2, “Macrocyclic compounds that inhibit MCL-1 protein” (AMGEN INC., priority 2017, dated 2022)
